Calls of active or inactive are those of the source. The calls are words filed in the database; no cut-off is given here.
Legend:
Mus musculus [1] = experiment: (§1) Anti-inflammatory activity in LPS-induced BALB/c mouse model of […] assessed as inhibition of LPS-induced increase in IL-6 expression in serum at 10 mg/kg, po preadministered with compound for 3 days followed by LPS stimulation for 6 hrs after 1 hrs compound administration on day 3 by ELISA; assay type: functional, organism-based; settings: time 3.0 day
Mus musculus [2] = experiment: (§2) Anti-inflammatory activity in LPS-induced BALB/c mouse model of […] assessed as inhibition of LPS-induced increase in lung W/D ratio at 10 mg/kg, po preadministered with compound for 3 days followed by LPS stimulation for 6 hrs after 1 hrs compound administration on day 3; assay type: functional, organism-based; settings: time 3.0 day
Mus musculus [3] = experiment: as §1, with “NO production” for “IL-6 expression”, “Griess reagent based method” for “ELISA”; assay type: functional, organism-based; settings: time 3.0 day
Mus musculus [4] = experiment: (§3) In vivo inhibition of NFkappaB activation in LPS-induced BALB/c mouse model of […] assessed as inhibition of IkappaBalpha degradation at 10 mg/kg, po preadministered with compound for 3 days followed by LPS stimulation for 6 hrs after 1 hrs compound administration on day 3 by Western blot analysis; assay type: functional, organism-based; settings: time 3.0 day
Mus musculus [5] = experiment: (§4) Anti-inflammatory activity in LPS-induced BALB/c mouse model of […] assessed as attenuation of lung alveolar hemorrhage at 10 mg/kg, po preadministered with compound for 3 days followed by LPS stimulation for 6 hrs after 1 hrs compound administration on day 3 by H&E staining based analysis; assay type: functional, organism-based; settings: time 3.0 day
Mus musculus [6] = experiment: as §3, with “NFkappaB” for “IkappaBalpha”; assay type: functional, organism-based; settings: time 3.0 day
Mus musculus [7] = experiment: as §1, with “BALF” for “serum”; assay type: functional, organism-based; settings: time 3.0 day
Mus musculus [8] = experiment: as §1, with “TNF-alpha” for “IL-6”, “BALF” for “serum”; assay type: functional, organism-based; settings: time 3.0 day
Mus musculus [9] = experiment: as §1, with “TNF-alpha” for “IL-6”; assay type: functional, organism-based; settings: time 3.0 day
Mus musculus [10] = experiment: as §4, with “inflammatory cell infiltration in lungs” for “lung alveolar hemorrhage”; assay type: functional, organism-based; settings: time 3.0 day
Mus musculus [11] = experiment: as §2, with “increase in NO production in BALF at 10” for “increase in lung W/D ratio at 10”, “day 3 by Griess reagent based method” for “day 3”; assay type: functional, organism-based; settings: time 3.0 day
RAW264.7 = experiment: Cytotoxicity against mouse RAW264.7 cells assessed as reduction in cell viability at 30 uM incubated for 24 hrs by MTT assay relative to control; assay type: toxicity, cell-based; settings: raw264.7, 24 h
[12] = Cytotoxicity against mouse RAW264.7 cells assessed as inhibition of cell growth incubated for 24 hrs by MTT assay; assay type: toxicity, cell-based

Cc1ccc(-c2cc(C(F)(F)F)nn2-c2ccc(S(N)(=O)=O)cc2)cc1
Activity (Mus musculus [1]): Active | Activity (Mus musculus [2]): Active | Activity (Mus musculus [3]): Active | inhibition (Mus musculus [4]): Active | Activity (Mus musculus [5]): Active | inhibition (Mus musculus [6]): Active | Activity (Mus musculus [7]): Active | Activity (Mus musculus [8]): Active | Activity (Mus musculus [9]): Active | Activity (Mus musculus [10]): Active | Activity (Mus musculus [11]): Active

CC(=O)O[C@H]1C[C@@]2(C)[C@@H](C[C@@H](O)[C@H]3[C@@]4(C)CC[C@@H](O)[C@@H](C)[C@@H]4CC[C@@]32C)/C1=C(\CCC=C(C)C)C(=O)O [FUSIDIC ACID]
Activity (RAW264.7): 101.08% | Activity (Mus musculus [1]): Active | Activity (Mus musculus [2]): Active | Activity (Mus musculus [3]): Active | IC50 at 24 h [12]: 61.3 µM | inhibition (Mus musculus [4]): Active | Activity (Mus musculus [5]): Active | inhibition (Mus musculus [6]): Active | Activity (Mus musculus [7]): Active | Activity (Mus musculus [8]): Active | Activity (Mus musculus [9]): Active | Activity (Mus musculus [10]): Active | Activity (Mus musculus [11]): Active

CC(=O)O[C@H]1C[C@@]2(C)[C@@H](C[C@@H](O)[C@H]3[C@@]4(C)CC[C@@H](O)[C@@H](C)[C@@H]4CC[C@@]32C)/C1=C(\CCC=C(C)C)C(=O)OCc1cn(Cc2ccccc2)nn1
Activity (RAW264.7): 98.53% | IC50 at 24 h [12]: 88.3 µM

CC(=O)O[C@H]1C[C@@]2(C)[C@@H](C[C@@H](O)[C@H]3[C@@]4(C)CC[C@@H](O)[C@@H](C)[C@@H]4CC[C@@]32C)/C1=C(\CCC=C(C)C)C(=O)OCc1nnc(-c2ccccc2)o1
Activity (RAW264.7): 102.94% | IC50 at 24 h [12]: 40.1 µM

CC(=O)O[C@H]1C[C@@]2(C)[C@@H](C[C@@H](O)[C@H]3[C@@]4(C)CC[C@@H](O)[C@@H](C)[C@@H]4CC[C@@]32C)/C1=C(\CCC=C(C)C)C(=O)OCc1cn(-c2ccc(F)cc2)nn1
Activity (RAW264.7): 100.85% | IC50 at 24 h [12]: 46.5 µM

COc1cc(-n2cc(COC(=O)/C(CCC=C(C)C)=C3\[C@@H](OC(C)=O)C[C@@]4(C)[C@H]3C[C@@H](O)[C@H]3[C@@]5(C)CC[C@@H](O)[C@@H](C)[C@@H]5CC[C@@]34C)nn2)cc(OC)c1OC
Activity (RAW264.7): 98.92% | IC50 at 24 h [12]: 120 µM

CC(=O)O[C@H]1C[C@@]2(C)[C@@H](C[C@@H](O)[C@H]3[C@@]4(C)CC[C@@H](O)[C@@H](C)[C@@H]4CC[C@@]32C)/C1=C(\CCC=C(C)C)C(=O)OCc1cc(-c2ccc(Cl)c(Cl)c2)no1
Activity (RAW264.7): 94.05% | IC50 at 24 h [12]: 44.6 µM

COc1ccc(-c2cc(COC(=O)/C(CCC=C(C)C)=C3\[C@@H](OC(C)=O)C[C@@]4(C)[C@H]3C[C@@H](O)[C@H]3[C@@]5(C)CC[C@@H](O)[C@@H](C)[C@@H]5CC[C@@]34C)on2)cc1
Activity (RAW264.7): 97.68% | IC50 at 24 h [12]: 77.2 µM

CC(=O)O[C@H]1C[C@@]2(C)[C@@H](C[C@@H](O)[C@H]3[C@@]4(C)CC[C@@H](O)[C@@H](C)[C@@H]4CC[C@@]32C)/C1=C(\CCC=C(C)C)C(=O)OCc1cn(Cc2ccc([N+](=O)[O-])cc2)nn1
Activity (RAW264.7): 101.85% | IC50 at 24 h [12]: 56.8 µM
